These results are taken from patent publication USRE50715E1, “Synthetic biochemistry molecular purge valve module that maintain co-factor balance” (The Regents of the University of California, priority 2014, dated 2025).

Numbering of substitutions follows the chain as printed. In names and notes the source's numbering stands.

Data set [1] concerns the target T1, G. stearothermophilus pyruvate dehydrogenase complex (GsPDH-NAD+, PDH^NADH), wild type (E1a SEQ ID NO: 1, E1b SEQ ID NO: 2, E2 SEQ ID NO: 3, E3^NADH SEQ ID NO: (Geobacillus stearothermophilus, UniProt P11959)).
T1 construct: made in house; host or cells: E. coli
Kind of data set: PDH kinetics, monitoring the reduction of NAD(P)^+ at 340 nm. The data set is classed as biochemical. On the procedure: (§1) The individual domains of G. stearothermophilus PDH were partially purified from E. coli lysates by heat prior to modification and reconstitution of the PDH complex. E1αβ, E2, or E3 containing lysates were incubated at 65° C. for 35 minutes to heat denature E. coli proteins followed by centrifugation at 30,000×g for 20 min to pellet the precipitated proteins. […] Next, the E2 domain was lipoated in the heated extract by the addition of 1 mM (±)-α-lipoic acid, 2 mM ATP, 3 mM MgCl2, and 50 μg of purified 6×His-LplA. The lipoation reaction was then allowed to proceed with gentle mixing overnight at 25° C., yielding lipoated E2 (E2lip). After lipoation, E1αβ, E2lip, and E3 were mixed in a 3:1:3 molar ratio and incubated for at least 1 hour at 25° C. to form the active GsPDH complex. The GsPDH complex was then isolated by ultracentrifugation (Beckman) for 4 hours at 95,000×g. […] The reconstituted complex was stored at 4° C. until use.

In data set [2] the target is T2, G. stearothermophilus pyruvate dehydrogenase complex, engineered mutant (GsPDH-NADP, PDH^NADPH), E3 mutant E206V, G207R, A208K, S213R (E3^NADPH SEQ ID NO: 7); E1 (Geobacillus stearothermophilus, UniProt P11959, A208K/E206V/G188A/G192A/G207R/S213R).
T2 construct: made in house; host or cells: E. coli
The data set is described as above. The class given is biochemical. On the procedure: as §1

The target of data set [3] is T3, L. lactis NADH oxidase (H2O forming), NoxE, SEQ ID NO: 10 (Lactococcus lactis, UniProt Q9CIG9).
T3 sequence (Q9CIG9 1-446): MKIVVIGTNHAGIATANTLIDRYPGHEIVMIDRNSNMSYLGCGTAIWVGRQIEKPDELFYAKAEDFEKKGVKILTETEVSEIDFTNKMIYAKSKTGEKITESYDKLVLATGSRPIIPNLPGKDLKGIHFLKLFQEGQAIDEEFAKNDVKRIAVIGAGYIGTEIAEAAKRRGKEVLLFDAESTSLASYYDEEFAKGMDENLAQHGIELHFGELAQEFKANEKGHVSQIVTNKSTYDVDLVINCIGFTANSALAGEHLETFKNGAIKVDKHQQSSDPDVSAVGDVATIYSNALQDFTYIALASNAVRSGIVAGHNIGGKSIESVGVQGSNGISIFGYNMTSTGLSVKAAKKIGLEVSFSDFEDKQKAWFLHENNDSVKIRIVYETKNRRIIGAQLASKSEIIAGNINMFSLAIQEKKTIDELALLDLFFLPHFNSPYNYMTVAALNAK
As to the kind of experiment: NoxE kinetics, monitoring the oxidation of NAD(P)H at 340 nm. The class given is biochemical.

Substrate in data set [4]: NC(=O)C1=CN([C@@H]2O[C@H](COP(=O)(O)OP(=O)(O)OC[C@H]3O[C@@H](n4cnc5c(N)ncnc54)[C@H](O)[C@@H]3O)[C@@H](O)[C@H]2O)C=CC1
As to the kind of experiment: purified protein, by the assay type. As to conditions: other: 100 mM tris-HCl pH 7.5, 5 mM MgCl2, 5 mM KCl, 0.2 mM NAD(P)H.

Substrate in data set [5]: NC(=O)C1=CN([C@@H]2O[C@H](COP(=O)(O)OP(=O)(O)OC[C@H]3O[C@@H](n4cnc5c(N)ncnc54)[C@H](OP(=O)(O)O)[C@@H]3O)[C@@H](O)[C@H]2O)C=CC1
Kind of data set: purified protein, by the assay type. As to conditions: other: 100 mM tris-HCl pH 7.5, 5 mM MgCl2, 5 mM KCl, 0.2 mM NAD(P)H.

Substrate in data set [6]: NC(=O)c1ccc[n+]([C@@H]2O[C@H](COP(=O)(O)OP(=O)(O)OC[C@H]3O[C@@H](n4cnc5c(N)ncnc54)[C@H](O)[C@@H]3O)[C@@H](O)[C@H]2O)c1
Kind of data set: PDH kinetics, monitoring the reduction of NAD(P)^+ at 340 nm. To be noted: other: 50 mM Tris pH 7.5, 5 mM MgCl2, 5 mM pyruvate, 1 mM CoA, 0.5 mM NAD(P)+. The data set is classed as biochemical, G. stearothermophilus.

Substrate in data set [7]: NC(=O)c1ccc[n+]([C@@H]2O[C@H](COP(=O)(O)OP(=O)(O)OC[C@H]3O[C@@H](n4cnc5c(N)ncnc54)[C@H](OP(=O)(O)O)[C@@H]3O)[C@@H](O)[C@H]2O)c1
Described as above. The data set is classed as biochemical, G. stearothermophilus. To be noted: other: 50 mM Tris pH 7.5, 5 mM MgCl2, 5 mM pyruvate, 1 mM CoA, 0.5 mM NAD(P)+.

Substrate in data set [8]: NC(=O)c1ccc[n+]([C@@H]2O[C@H](COP(=O)(O)OP(=O)(O)OC[C@H]3O[C@@H](n4cnc5c(N)ncnc54)[C@H](O)[C@@H]3O)[C@@H](O)[C@H]2O)c1
As to the kind of experiment: cells, lysate or membranes named. To be noted: other: 50 mM Tris pH 7.5, 5 mM MgCl2, 5 mM pyruvate, 1 mM CoA, 0.5 mM NAD(P)+.

Substrate in data set [9]: NC(=O)c1ccc[n+]([C@@H]2O[C@H](COP(=O)(O)OP(=O)(O)OC[C@H]3O[C@@H](n4cnc5c(N)ncnc54)[C@H](OP(=O)(O)O)[C@@H]3O)[C@@H](O)[C@H]2O)c1
As to the kind of experiment: cells, lysate or membranes named. As to conditions: other: 50 mM Tris pH 7.5, 5 mM MgCl2, 5 mM pyruvate, 1 mM CoA, 0.5 mM NAD(P)+.

`NC(=O)c1ccc[n+]([C@@H]2O[C@H](COP(=O)(O)OP(=O)(O)OC[C@H]3O[C@@H](n4cnc5c(N)ncnc54)[C@H](O)[C@@H]3O)[C@@H](O)[C@H]2O)c1` [NAD+, nicotinamide adenine dinucleotide]: the “kcat ratio, NAD^+ vs NADP^+” value in data set [1] (kcat higher with NAD^+ than NADP^+) was 11.2 times. In addition, the “kcat/Km ratio, NAD^+ vs NADP^+” value in [1] (kcat/Km higher with NAD^+ than NADP^+) is 1150 times.
Regarding `NC(=O)c1ccc[n+]([C@@H]2O[C@H](COP(=O)(O)OP(=O)(O)OC[C@H]3O[C@@H](n4cnc5c(N)ncnc54)[C@H](OP(=O)(O)O)[C@@H]3O)[C@@H](O)[C@H]2O)c1` [NADP+], in data set [2] (kcat higher with NADP^+ than NAD+), the “kcat ratio, NADP^+ vs NAD+” value is given as 7.3 times. For the same molecule, the “kcat/Km ratio, NADP^+ vs NAD+” value in data set [2] (kcat/Km higher with NADP^+ than NAD+) is 21 times.
In the case of `NC(=O)C1=CN([C@@H]2O[C@H](COP(=O)(O)OP(=O)(O)OC[C@H]3O[C@@H](n4cnc5c(N)ncnc54)[C@H](O)[C@@H]3O)[C@@H](O)[C@H]2O)C=CC1` [NADH], the “Kcat ratio, NADH vs NADPH” value in data set [3] (Kcat greater with NADH than NADPH) came to 248.8 times. In addition, in data set [3] (kcat/Km greater with NADH than NADPH), the “kcat/Km ratio, NADH vs NADPH” value is 9900 times.

B1: L. lactis NADH oxidase (H2O forming), NoxE, SEQ ID NO: 10 (Lactococcus lactis subsp. lactis Il1403) (protein)
chain: T3 sequence (Q9CIG9 1-446)
For the molecule B1, the Km was 74.93 ± 26 µM in data set [4] and 2951.5 ± 770 µM in [5].

B2: G. stearothermophilus pyruvate dehydrogenase complex, engineered mutant (GsPDH-NADP, PDH^NADPH), E3 mutant E206V, G207R, A208K, S213R (E3^NADPH SEQ ID NO: 7; … (protein)
chain: MVVGDFAIETETLVVGAGPGGYVAAIRAAQLGQKVTIVEKGNLGGVCLNVGCIPSKALISASHRYEQAKHSEEMGIKAENVTIDFAKVQEWKASVVKKLTGGVEGLLKGNKVEIVKGEAYFVDANTVRVVNGDSAQTYTFKNAIIATGSRPIELPNFKFSNRILDSTGALNLGEVPKSLVVIGGGYIAIELATAYANFGTKVTILVRKGEILRGFEKQMAAIIKKRLKKKGVEVVTNALAKGAEEREDGVTVTYEANGETKTIDADYVLVTVGRRPNTDELGLEQIGIKMTNRGLIEVDQQCRTSVPNIFAIGDIVPGPALAHKASYEGKVAAEAIAGHPSAVDYVAIPAVVFSDPECASVGYFEQQAKDEGIDVIAAKFPFAANGRALALNDTDGFLKLVVRKEDGVIIGAQIIGPNASDMIAELGLAIEAGMTAEDIALTIHAHPTLGEIAMEAAEVALGTPIHIITK
notes: made in house; host or cells: E. coli
B2: the Km in [6] was determined as 452.7 ± 178 µM; in data set [7] it was 157 ± 13 µM.

B3: G. stearothermophilus pyruvate dehydrogenase complex (GsPDH-NAD+, PDH^NADH), wild type (E1a SEQ ID NO: 1, E1b SEQ ID NO: 2, E2 SEQ ID NO: 3, E3^NADH SEQ ID NO: … (protein)
chain: B2 chain with A188G, A192G, V206E, R207G, K208A, R213S
Turning to B3, the Km stood at 13.38 ± 0.83 µM in data set [8] and 1381 ± 410 µM in data set [9].
